One assay has as its target T1, obelin (OL_wt) (Obelia longissima, UniProt Q27709).
T1 construct: full-length apo-obelin from pET19-OL8 in E. coli BL21-Gold (DE3) Codon Plus (RIPL), charged with coelenterazine; 195 residues
The assay is described as follows: Ca2+-triggered bioluminescence of charged photoprotein, luminometer. Conditions: 2 mM CaCl2, 50 mM Tris-HCl pH 8.5, 23 C; bound as 2-hydroperoxycoelenterazine. The class given is biochemical.

A further assay addresses T2, aequorin (AV_wt) (Aequorea victoria, UniProt P07164).
T2 construct: apo-aequorin with N-terminus truncated by six residues, from pET22-A7 in E. coli BL21-Gold (DE3) Codon Plus (RIPL), charged with coelenterazine
T2 sequence (P07164 7-196 limits assumed): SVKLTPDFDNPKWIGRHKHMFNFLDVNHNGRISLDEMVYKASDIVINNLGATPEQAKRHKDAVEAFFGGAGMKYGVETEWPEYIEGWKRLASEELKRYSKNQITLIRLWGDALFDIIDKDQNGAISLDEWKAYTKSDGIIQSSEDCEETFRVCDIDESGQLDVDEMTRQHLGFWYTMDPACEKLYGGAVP
The assay is described as above. Type of assay: biochemical. Conditions: 2 mM CaCl2, 50 mM Tris-HCl pH 8.5, 23 C; bound as 2-hydroperoxycoelenterazine.

The structures appear in SMILES notation.

T1 sequence (Q27709 whole entry): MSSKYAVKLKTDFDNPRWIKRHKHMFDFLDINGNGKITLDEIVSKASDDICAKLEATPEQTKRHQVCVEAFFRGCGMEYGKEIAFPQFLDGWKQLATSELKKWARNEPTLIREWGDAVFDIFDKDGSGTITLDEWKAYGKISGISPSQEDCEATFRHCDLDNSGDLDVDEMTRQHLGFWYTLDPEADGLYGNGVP

Turning to `Oc1ccc(Cc2nc3c(Cc4ccccc4)nc(-c4ccc(O)cc4)cn3c2O)cc1` [coelenterazine], the “Ca2+-triggered bioluminescence of charged photoprotein, luminometer” value was “Obelin and aequorin as well as their mutants were purified and activated with coelenterazine” on obelin (OL_wt); “Obelin and aequorin as well as their mutants were purified and activated with coelenterazine” on aequorin (AV_wt).

Source of the values: paper PMC10095345, “The Role of Tyr-His-Trp Triad and Water Molecule Near the N1-Atom of 2-Hydroperoxycoelenterazine in Bioluminescence of Hydromedusan Photoproteins: Structural and Mutagenesis Study” (International Journal of Molecular Sciences, 2023).
